Reference: PubChem BioAssay (NCI)
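These data come from cells grown in 96-well plates and exposed to compound for 48 hours at five concentrations. TGI: total growth inhibition.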

What was measured:
Assay in all cases: NCI anticancer screen, dose series, 48 h
SF-268 CNS = tested on: SF-268 CNS
MDA-N = tested on: MDA-N
MCF7 breast = tested on: MCF7 breast
HL-60(TB) leukemia = tested on: HL-60(TB) leukemia
K-562 leukemia = tested on: K-562 leukemia
U251 CNS = tested on: U251 CNS
IGROV1 ovarian = tested on: IGROV1 ovarian
EKVX NSCLC = tested on: EKVX NSCLC
NCI-H522 lung = tested on: NCI-H522 lung

Compound	TGI (SF-268 CNS) [µM]	TGI (MDA-N) [µM]	TGI (MCF7 breast) [µM]	TGI (HL-60(TB) leukemia) [µM]	TGI (K-562 leukemia) [µM]	TGI (U251 CNS) [µM]	TGI (IGROV1 ovarian) [µM]	TGI (EKVX NSCLC) [µM]	TGI (NCI-H522 lung) [µM]
O=C1c2ccccc2C2(c3ccc(Cl)cc3)N[C@@H]3CCCC[C@@H]3N12 (stereo not given in full)	> 100	> 100	> 100	> 100	> 100	> 100	> 100	> 100	
Cn1c(O)c(/C=N/c2ncccn2)c(=O)[nH]c1=O	> 100	> 100	> 100	> 100		> 100	> 100	> 100	> 100
CC(=O)NC1C(OCc2ccccc2)OC(CO)C(O)C1OCC(=O)N[C@@H](C)C(=O)N[C@H](CCC(=O)NCCCCNc1c2ccccc2nc2cccc([N+](=O)[O-])c12)C(N)=O (stereo not given in full)	14.5	4.15	32	> 100	> 100	10.9	4.74	8.97	0.594
CCOC(=O)c1c(SCCN2CCCCC2)n(-c2ccccc2)c(=S)n(-c2ccccc2)c1=O	> 75.4	36.9	18.3	> 33.8	11	> 68.2			35.4
COc1ccc(OC)c(-c2cn3c(n2)sc2ccccc23)c1	> 100	> 100	> 100	> 100	> 100	> 100	> 100	> 100	> 100
OCC1c2ccccc2-n2nc(-c3ccccc3)c(O)c21 (stereo not given)	> 100	> 100	36.7		53	52.8	> 100	> 100	48.7
C=C1CC(Cn2cc(Br)c(=O)[nH]c2=O)(c2ccc(Br)cc2)OC1=O (stereo not given)	41.3	7.46	14.4	2.74	> 100	28.8	4.06	39.7	3.19
CC(=O)NCC1OC2COC(c3ccccc3)OC2C2N=C(c3ccccc3)OC12 (stereo not given)	> 100	> 100	> 100	52.9	> 100	> 100		> 100	
COc1ccc(C2C3=CONC3CC3CCCCC32)cc1 (stereo not given)	> 100		> 100	> 100	> 100	> 100	> 100		> 100
C/C(=N\NC(=O)c1ccncc1)c1cccc(C(F)(F)F)c1	> 10	> 10	> 10	> 10	> 10	> 10	> 10	> 10	
CN1C(=O)C(CCO)(C(C)(C)C)c2ccccc21 (stereo not given)	> 100	> 100	> 100	> 100	> 100	> 100		> 100	
C=C(C)C(=O)O[C@H]1CC2(CO)O[C@@H]2CC/C(COC(C)=O)=C/C2OC(=O)C(=C)[C@@H]21 (stereo not given in full)	> 100		57.7	29.6	74	> 100	> 100	> 100	31.6
Nc1cc2ncnc(Nc3cccc(Br)c3)c2cn1	> 100	> 100		> 100	> 100	> 100			
CCOC(=O)NC(OCc1ccccc1)(C(=O)OC)C(F)(F)F (stereo not given)	> 100	> 100	> 100	> 100	> 100	> 100	> 100	> 100	> 100
Cc1cc2nc3c(N)nn(CCN(C)C)c3nc2cc1C	> 100	> 100	> 100		> 100	> 100	> 100	> 100	> 100
CC(=O)Nc1nc(C)c(S(=O)(=O)NC(=O)N2c3ccccc3CCc3ccccc32)s1	> 100	> 100	> 100	> 100	> 100	> 100	> 100	> 100	> 100
O=c1[nH]nc(N/N=C\c2ccc(Cl)cc2)c2ccccc12	55.5		64	> 100	81.1	38.2	37.2	> 100	48
Oc1ccc(O)c(Sc2nnc(CCCCCCCCc3nnc(Sc4cc(O)ccc4O)o3)o2)c1	> 100	32.9	94.1		> 100	> 100	> 100	> 100	55
O=C(c1ccccc1)c1ccc2nc(-c3c(Cl)c(Cl)c(Cl)c(Cl)c3C(=O)Nc3ccco3)[nH]c2c1	> 100	41	> 100	98.3	> 100	> 100	> 100	> 100	81.4
O=c1cnc2cc3ccccc3cc2[nH]1	> 100	> 100	> 100	> 100	> 100	> 100	> 100	> 100	> 100
CCn1c(SCc2nnc(Nc3ccccc3)s2)nc2ccccc2c1=O	22.3	> 52.1	> 93.6		> 73.2	5.3	15.7	17.3	7.63
COc1ccc(C[C@H]2COC(=O)[C@@H]2Cc2ccccc2)cc1OC		> 100	> 100		> 100	> 100	> 100	> 100	
CCOC(=O)c1nc2ccccc2nc1Nc1ccc(F)cc1	30	> 100	> 100	> 100	> 100	70.6	44.8	> 68.7	> 100
COc1c(-c2ccc(F)cc2)oc2cc(O)cc(O)c2c1=O	> 100	62	> 100	70.1	> 100	97.5	> 100	45.5	44.2
C/C=C\C(CC(=O)NCCc1c[nH]c2ccccc12)CC(=O)OC (stereo not given)	> 100	> 100	> 100		> 100	> 100	> 100	> 100	> 100
